Assays:
[1] = tested on: Pseudomonas aeruginosa ATCC 27853; assay: MIC assay, planktonic growth, MBEC bioFILM PA panel; conditions: antibiotics become less effective
Procedure: The MBEC bioFILM PA panel is designed for use in determining antimicrobial agent susceptibility of both planktonic and biofilm Pseudomonas aeruginosa.
From this test, the minimum antibiotic concentration—in the presence and absence of a compound of the present invention—that will inhibit bacterial growth in solution (“MIC Assay”) is determined. The minimum antibiotic concentration—in the presence and absence of a compound of the present invention—that will prevent attachment of bacteria to a test surface (“MBEC Assay”) is determined. Approximately 1,000,000-10,000,000 bacteria attach in the absence of antibiotics; lesser numbers attach in the presence of antibiotics.
MBEC bioFilm PA panel—Panel wells are inoculated with planktonic Pseudomonas aeruginosa using a 95 peg inoculation lid. Panels and pegged lids are then incubated at 35° C. for 18 h. Planktonic susceptibility and resistance is determined by measuring inhibition and growth in the presence of antimicrobial agents after incubation. Biofilm susceptibility and resistance is determined by measuring inhibition and growth after peg sonication, biofilm bacteria recovery, then incubation for additional 18-24 h at 35° C.

[2] = tested on: Pseudomonas aeruginosa ATCC 27853; assay: MBEC assay, biofilm inhibition (prevention of biofilm formation), MBEC bioFILM PA panel; type: cell-based; design: MBEC-Biofilm Inhibition, Without compound 9 / MBEC-Biofilm Inhibition, Without compound 6 / MBEC-Biofilm Inhibition, Without compound 2 / MBEC-Biofilm Inhibition, Without compound 7 / MBEC-Biofilm Inhibition, With 0.01% compound 7 in 5% EtOH/PBS / MBEC-Biofilm Inhibition, without salt of compound 2 / MBEC-Biofilm Inhibition, with 0.1% salt of compound 2 / MBEC-Biofilm Inhibition, without salt of compound 6: unit not given here; conditions: for MBEC-Biofilm Inhibition, without salt of compound 2 / MBEC-Biofilm Inhibition, with 0.1% salt of compound 2: Table 9; for MBEC-Biofilm Inhibition, without salt of compound 2 / MBEC-Biofilm Inhibition, without salt of compound 6: antibiotic or antibiotic combination alone; for MBEC-Biofilm Inhibition, without salt of compound 2 / MBEC-Biofilm Inhibition, with 0.1% salt of compound 2 / MBEC-Biofilm Inhibition, without salt of compound 6 / MBEC-Biofilm Inhibition, with 0.1% salt of compound 6: value per component; for MBEC-Biofilm Inhibition, without salt of compound 2: separated by /; for MBEC-Biofilm Inhibition, with 0.1% salt of compound 2: antibiotic or combination plus 0.1% salt of compound 2; for MBEC-Biofilm Inhibition, without salt of compound 6 / MBEC-Biofilm Inhibition, with 0.1% salt of compound 6: Table 10; for MBEC-Biofilm Inhibition, with 0.1% salt of compound 6: antibiotic or combination plus 0.1% salt of compound 6; for MBEC-Biofilm Inhibition, Without compound 1 / MBEC-Biofilm Inhibition, Without compound 2 / MBEC-Biofilm Inhibition, Without compound 3 / MBEC-Biofilm Inhibition, Without compound 6 / MBEC-Biofilm Inhibition, Without compound 7 / MBEC-Biofilm Inhibition, Without compound 9: antibiotic alone
[3] = tested on: Pseudomonas aeruginosa ATCC 27853; assay: MBEC assay, biofilm elimination, MBEC bioFILM PA panel; type: cell-based; design: MBEC-Biofilm Elimination, Without compound 2 / MBEC-Biofilm Elimination, With 0.01% compound 2 in 5% EtOH/PBS / MBEC-Biofilm Elimination, Without compound 7 / MBEC-Biofilm Elimination, With 0.01% compound 7 in 5% EtOH/PBS / MBEC-Biofilm Elimination, Without compound 1 / MBEC-Biofilm Elimination, With 0.01% compound 1 in 5% EtOH/PBS / MBEC-Biofilm Elimination, without salt of compound 2 / MBEC-Biofilm Elimination, with 0.1% salt of compound 2: unit not given here; conditions: for MBEC-Biofilm Elimination, without salt of compound 2 / MBEC-Biofilm Elimination, with 0.1% salt of compound 2: Table 9; for MBEC-Biofilm Elimination, without salt of compound 2 / MBEC-Biofilm Elimination, without salt of compound 6: antibiotic or antibiotic combination alone; for MBEC-Biofilm Elimination, without salt of compound 2 / MBEC-Biofilm Elimination, with 0.1% salt of compound 2 / MBEC-Biofilm Elimination, without salt of compound 6 / MBEC-Biofilm Elimination, with 0.1% salt of compound 6: value per component; for MBEC-Biofilm Elimination, with 0.1% salt of compound 2: antibiotic or combination plus 0.1% salt of compound 2; for MBEC-Biofilm Elimination, without salt of compound 6 / MBEC-Biofilm Elimination, with 0.1% salt of compound 6: Table 10; for MBEC-Biofilm Elimination, with 0.1% salt of compound 6: antibiotic or combination plus 0.1% salt of compound 6; for MBEC-Biofilm Elimination, Without compound 1 / MBEC-Biofilm Elimination, Without compound 2 / MBEC-Biofilm Elimination, Without compound 3 / MBEC-Biofilm Elimination, Without compound 6 / MBEC-Biofilm Elimination, Without compound 7 / MBEC-Biofilm Elimination, Without compound 9: antibiotic alone
[4] = with 0.1% w/v compound 9 in PBS

Row | Compound | MBEC-Biofilm Inhibition, without salt of compound 2 [2] | MBEC-Biofilm Inhibition, with 0.1% salt of compound 2 [2] | MBEC-Biofilm Inhibition, without salt of compound 6 [2] | MBEC-Biofilm Inhibition, with 0.1% salt of compound 6 [2] | MBEC-Biofilm Inhibition, Without compound 1 [2] | MBEC-Biofilm Inhibition, Without compound 2 [2] | MBEC-Biofilm Inhibition, Without compound 3 [2] | MBEC-Biofilm Inhibition, Without compound 6 [2] | MBEC-Biofilm Inhibition, Without compound 7 [2] | MBEC-Biofilm Inhibition, Without compound 9 [2] | MBEC-Biofilm Inhibition, With 0.01% compound 1 in 5% EtOH/PBS [2] | MBEC-Biofilm Inhibition, With 0.01% compound 2 in 5% EtOH/PBS [2] | MBEC-Biofilm Inhibition, With 0.01% compound 7 in 5% EtOH/PBS [2] | MBEC-Biofilm Inhibition, With 0.05% compound 3 in 5% EtOH/PBS [2] | MBEC-Biofilm Inhibition, With 0.05% compound 6 in 5% EtOH/PBS [2] | MBEC-Biofilm Elimination, without salt of compound 2 [3] | MBEC-Biofilm Elimination, with 0.1% salt of compound 2 [3] | MBEC-Biofilm Elimination, without salt of compound 6 [3] | MBEC-Biofilm Elimination, with 0.1% salt of compound 6 [3] | MBEC-Biofilm Elimination, Without compound 1 [3] | other results
1 | CC(C)(C)c1ccc(OS(=O)(=O)Cl)cc1 [compound 9] | – | – | – | – | – | – | – | – | – | – | – | – | – | – | – | – | – | – | – | – | MIC values of antibiotics in the presence of the compound [1]: increased
2 | gentamicin [GM] | >2 | >2 | >2 | >2 | >2 | >2 | >2 | >2 | >2 | >2 | >2 | >2 | >2 | >2 | >2 | >2 | >2 | >2 | >2 | >2 | MBEC-Biofilm Inhibition, With 0.1% w/v compound 9 in PBS [2, 4]: >2; MBEC-Biofilm Elimination, Without compound 2 [3]: >2; MBEC-Biofilm Elimination, Without compound 3 [3]: >2; MBEC-Biofilm Elimination, Without compound 6 [3]: >2; MBEC-Biofilm Elimination, Without compound 7 [3]: >2; MBEC-Biofilm Elimination, Without compound 9 [3]: 2; MBEC-Biofilm Elimination, With 0.01% compound 1 in 5% EtOH/PBS [3]: 2; MBEC-Biofilm Elimination, With 0.01% compound 2 in 5% EtOH/PBS [3]: >2; MBEC-Biofilm Elimination, With 0.01% compound 7 in 5% EtOH/PBS [3]: 2; MBEC-Biofilm Elimination, With 0.05% compound 3 in 5% EtOH/PBS [3]: >2; MBEC-Biofilm Elimination, With 0.05% compound 6 in 5% EtOH/PBS [3]: >2; MBEC-Biofilm Elimination, With 0.1% w/v compound 9 in PBS [3, 4]: >2
3 | CO/N=C(\C(=O)N[C@@H]1C(=O)N2C(C(=O)[O-])=C(C[N+]3(C)CCCC3)CS[C@H]12)c1csc(N)n1 [CPE, cefepime] | >4 | >4 | >4 | >4 | >4 | >4 | >4 | >4 | >4 | >4 | >4 | >4 | >4 | >4 | >4 | >4 | >4 | >4 | >4 | >4 | MBEC-Biofilm Elimination, Without compound 2 [3]: >4; MBEC-Biofilm Elimination, Without compound 3 [3]: >4; MBEC-Biofilm Elimination, Without compound 6 [3]: >4; MBEC-Biofilm Elimination, Without compound 7 [3]: >4; MBEC-Biofilm Elimination, Without compound 9 [3]: >4; MBEC-Biofilm Elimination, With 0.01% compound 1 in 5% EtOH/PBS [3]: >4; MBEC-Biofilm Elimination, With 0.01% compound 2 in 5% EtOH/PBS [3]: >4; MBEC-Biofilm Elimination, With 0.01% compound 7 in 5% EtOH/PBS [3]: >4; MBEC-Biofilm Elimination, With 0.05% compound 3 in 5% EtOH/PBS [3]: >4; MBEC-Biofilm Elimination, With 0.05% compound 6 in 5% EtOH/PBS [3]: >4

Reference: US20090016990A1, “Antimicrobial Compositions” (priority 2007, published 2009)
